Data on eight compounds can be found in PMC9684503 (Communications Biology, 2022).

Where “and” joins values, the source holds several entries; their conditions need not be identical. Equal values may be shown once. Where a name gives a salt, the structure may show the parent alone. Read-outs that look alike come from different tables or passages of the source.

Test [1] concerns the target T1, VMAT2 (Rattus norvegicus, UniProt Q01827). Conditions: 50 µM.
Protocol: (§1) We preincubated cells expressing VMAT2 with 50 μM compounds and measured [^3H]-DTBZ binding (5 nM) to the sample (Fig. 3a). […] Hek293 cells were grown and transfected with pcDNA3.1 VMAT2-His as described above. Two days after transfection, cells were harvested, washed and transferred to 96 well MultiScreen FB filter plates (Millipore). […] Cells were washed 3 times with ice cold PBS and 50 µl Ultima Gold LLL (PerkinElmer) was added to each well. […] After a 20 min incubation at 37 °C, cells were washed and [^3H] scintillation counting was performed as described above.
Another test concerns the target rat VMAT2 (Rattus norvegicus, UniProt Q01827). In words: FFN206 uptake assay in transfected Hek293 cells.
Test [2] concerns the target T1, VMAT2. In words: [3H]-DTBZ competition assay in Hek293 cells expressing VMAT2.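 Also: HEK293 cells transfected with VMAT2, pretreated 30 min with compound, then given 5 nM [3H]-DTBZ for 20 min at 37 °C, bound label read by scintillation counting.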 Conditions: 50 μM compound.
Protocol: as §1
For a further test, the target named is T2, rat VMAT2-His (Rattus norvegicus, UniProt Q01827).
T2 construct: The ORF of rat VMAT2 was subcloned into a pFastBac vector; His; made in house; host or cells: Sf9 insect cells (baculovirus)
Nature of the test: Differential scanning fluorimetry (DSF) with CPM dye: change of melting temperature of purified VMAT2. Type of test: binding. Conditions: for ΔTm at 12 µM: compound 0,12 µM; for ΔTm at 37 µM: compound 0,37 µM; for ΔTm at 10 µM: compound 10 µM; for ΔTm at 30 µM: compound 30 µM; for ΔTm at 90 µM: compound 90 µM; for ΔTm at 270 µM: compound 270 µM. The method, then:
To screen purified VMAT2 by DSF we expressed the rat VMAT2 protein, as VMAT2-His, in SF9 insect cells using the baculovirus expression system. The transporter was solubilized and purified in n-Dodecyl-β-D-maltoside (DDM)/cholesterol hemisuccinate (CHS) micelles by immobilized metal affinity chromatography (IMAC) and size exclusion chromatography (SEC). […] Screening was performed using DSF and the thiol-reactive dye 7-diethylamino-3-(4-maleimidophenyl)-4-methylcoumarin (CPM), an approach that monitors changes to the protein melting temperature (Tm) upon compound binding. Using CPM or other dyes, DSF-based assays have successfully been used in molecular-based screenings[34],[35]. […] DSF screening was performed in 384 well plates using the thiol-sensing dye 7-diethylamino-3-(4-maleimidophenyl)-4-methylcoumarin (CPM) (Merck). […] Protein melting curves were determined using a LightCycler 480 ii RT-PCR system (Roche), with a temperature ramp increasing from 25 to 95 °C at a rate of 2 °C/min. Data analysis was performed using an in-house software that automatically determines the protein midpoint melting temperature (Tm) based on the second derivative of the melting curves or using the HTSDSF explorer as described in ref. [58]. […] 6 μl of this mix was dispensed to each well of 384 well plates using a Multidrop™ Combi Reagent Dispenser (Thermo Scientific). […] All initial hits were then subjected to an initial validation in triplicates with a compound concentration of 200 μM and a ΔTm > 5× the standard deviation (SD) cut off. […] Processing of the data from the primary screening and the concentration-dependent validation was performed as reported.
For orientation: In DSF a fluorescence change marks the thermal transition of the protein.

The mark [3] stands for this setting: Table 1, DSF screening, mean ± SD of triplicates.
The mark [4] stands for this setting: Table S2 dose response, read-out: ΔTm.
Where [5] appears, read: Table S2 dose response, compound 1,11 µM, read-out: ΔTm.
Setting [6] is: Table S2 dose response, compound 3,33 µM, read-out: ΔTm.

T1 sequence (Q01827 whole entry): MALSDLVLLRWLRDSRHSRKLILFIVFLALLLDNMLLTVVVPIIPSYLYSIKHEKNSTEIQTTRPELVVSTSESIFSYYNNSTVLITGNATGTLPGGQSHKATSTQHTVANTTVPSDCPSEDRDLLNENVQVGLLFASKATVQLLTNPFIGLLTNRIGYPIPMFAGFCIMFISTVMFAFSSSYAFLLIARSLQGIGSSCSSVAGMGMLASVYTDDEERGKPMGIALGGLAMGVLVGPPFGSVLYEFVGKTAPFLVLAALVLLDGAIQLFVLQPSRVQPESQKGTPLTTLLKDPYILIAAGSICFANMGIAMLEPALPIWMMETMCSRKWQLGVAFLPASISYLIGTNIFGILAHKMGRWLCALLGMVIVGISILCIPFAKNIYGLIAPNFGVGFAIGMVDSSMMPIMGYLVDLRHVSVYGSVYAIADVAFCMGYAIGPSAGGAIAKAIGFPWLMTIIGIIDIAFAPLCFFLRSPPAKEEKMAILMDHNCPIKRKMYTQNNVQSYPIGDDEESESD
Chain of rat VMAT2 (Q01827 whole entry): as above
T2 sequence (Q01827 whole entry): as above

What is called IC50 is the point on the concentration scale where inhibition reaches its midpoint. `CCN(CC)CCCC(C)Nc1ccnc2cc(Cl)ccc12` (stereo not shown) [Chloroquine]: on VMAT2 [1] (hek293 cells), the activity stood at 85.1 ± 11.3%. In addition, the IC50 on rat VMAT2 is > 10 µM. Also, the “effect on [3H]-DTBZ binding compared with DMSO control (one-way ANOVA, p < 0.001)” value on VMAT2 [2] is on record as “no statistically significant effect”.
Turning to `CC(C)NCC(O)COc1ccc(CCOCC2CC2)cc1` (stereo not shown) [Betaxolol, Betaxolol hydrochloride], the ΔTm at rat VMAT2-His (setting [3]) came out at 1.98 ± 0.15 oC. Further, at rat VMAT2-His (setting [4]), the ΔTm at 12 µM was -0.32 °C, the ΔTm at 37 µM is -0.34 °C, the ΔTm at 10 µM was found to be 0.12 °C and the ΔTm at 30 µM amounted to 0.01 °C. Moreover, on rat VMAT2-His (setting [4]), the ΔTm at 90 µM was determined as 0.2 °C and the ΔTm at 270 µM was 1.16 °C. In addition, the ΔTm at 11 µM on rat VMAT2-His (setting [5]) stood at 0.01 °C. The ΔTm at 33 µM on rat VMAT2-His (setting [6]) was 0.01 °C. This compound also had an IC50 against rat VMAT2 of 6.85 ± 3.62 µM.
As to `CCCC(=O)Nc1ccc(OCC(O)CNC(C)C)c(C(C)=O)c1` (stereo not shown) [Acebutolol, Acebutolol hydrochloride], the ΔTm on rat VMAT2-His (setting [3]) is recorded as 2.14 ± 0.05 oC. On rat VMAT2-His (setting [4]), the ΔTm at 12 µM turned out to be 0.2 °C, the ΔTm at 37 µM worked out at 0.03 °C, the ΔTm at 10 µM is 0.2 °C and the ΔTm at 30 µM was found to be 0.31 °C. Also, at rat VMAT2-His (setting [4]), the ΔTm at 90 µM turned out to be 0.33 °C and the ΔTm at 270 µM came to 0.9 °C. Also, at rat VMAT2-His (setting [5]), the ΔTm at 11 µM was determined as 0.3 °C. Further, on rat VMAT2-His (setting [6]), the ΔTm at 33 µM worked out at 0.03 °C. Moreover, the IC50 on rat VMAT2 was > 10 µM. For the same compound, at rat VMAT2 (read-out: IC50, rat VMAT2, Table S1, substrate uptake assays in transfected Hek293 cells), the IC50 is < 10 µM.
Regarding `CC(C)(C)NCC(O)c1cc(Cl)c(N)c(Cl)c1` (stereo not shown) [Clenbuterol], at rat VMAT2-His (setting [3]), the ΔTm is 2.19 ± 0.13 oC. The half-maximal inhibitory concentration (IC50) against rat VMAT2 was > 10 µM.
`CC(C)NCC(O)c1ccc2ccccc2c1` (stereo not shown) [Pronethalol, Pronethalol hydrochloride]: the ΔTm at rat VMAT2-His (10 µM) was 0,71 oC; on rat VMAT2-His (11 µM) it was 0,70 oC; at rat VMAT2-His (12 µM), -0,02 oC; on rat VMAT2-His (30 µM), 1,83 oC; at rat VMAT2-His (33 µM) it was 0,48 oC; on rat VMAT2-His (37 µM), 0,21 oC. Also, the ΔTm on rat VMAT2-His (90 µM) is given as 2,42 oC; on rat VMAT2-His (270 µM) it was 3,75 oC. Besides, the IC50 on rat VMAT2 is 1.01 ± 0.3 µM.
As for `COc1ccc2[nH]c([S+]([O-])Cc3ncc(C)c(OC)c3C)nc2n1` (stereo not shown) [Tenatoprazole], the ΔTm at rat VMAT2-His (setting [3]) was found to be 7.36 ± 0.41 oC. Besides, on rat VMAT2-His (setting [4]), the ΔTm at 12 µM came out at 0.38 °C, the ΔTm at 37 µM stood at 0.24 °C, the ΔTm at 10 µM was 4.77 °C and the ΔTm at 30 µM was 6.25 °C. Moreover, on rat VMAT2-His (setting [4]), the ΔTm at 90 µM worked out at 6.56 °C and the ΔTm at 270 µM was found to be 6.79 °C. Also, the ΔTm at 11 µM at rat VMAT2-His (setting [5]) amounted to 1.3 °C. Besides, at rat VMAT2-His (setting [6]), the ΔTm at 33 µM is 4.85 °C. This compound displayed an activity on VMAT2 [1] (hek293 cells) of 87.5 ± 8.53%. Besides, the IC50 against rat VMAT2 is > 10 µM. On rat VMAT2 (Fig. 2a source data, 25 μM compound), the “VMAT2-specific FFN206 uptake relative to DMSO (=1), replicate samples” value is 0.8521 and 0.6659 and 1.063 and 0.8968. Besides, the inhibition at 25 µM at rat VMAT2 (HEK293, read-out: inhibitory effect on VMAT2 activity) is ≤ 50%. For the same compound, the “effect on [3H]-DTBZ binding compared with DMSO control (one-way ANOVA, p < 0.001)” value on VMAT2 [2] is “no statistically significant effect”.
In the case of `CCCNCC(O)COc1ccccc1C(=O)CCc1ccccc1` (stereo not shown) [Propafenone, Propafenone hydrochloride], the ΔTm at rat VMAT2-His (setting [3]) worked out at 4.53 ± 0.18 oC. Also, at rat VMAT2-His (setting [4]), the ΔTm at 37 µM was 0.99 °C, the ΔTm at 10 µM is 1.65 °C, the ΔTm at 30 µM was 2.63 °C and the ΔTm at 90 µM came to 3.49 °C. For the same compound, the ΔTm at 270 µM on rat VMAT2-His (setting [4]) worked out at 4.45 °C. The ΔTm at rat VMAT2-His (setting [5]) came out at 1.22 °C. Moreover, the ΔTm on rat VMAT2-His (setting [6]) worked out at 1.22 °C. Further, the activity at VMAT2 [1] was found to be 60.7 ± 20.8%. The “effect on [3H]-DTBZ binding compared with DMSO control (one-way ANOVA, p < 0.001)” value at VMAT2 [2] was “statistically significantly effect”.
On rat VMAT2, `OCc1cc([C@@H](O)CNCCCCCCOCCOCc2c(Cl)cccc2Cl)ccc1O` [Vilanterol] yielded an IC50 of 0.047 ± 0.014 µM. Besides, the “FFN206 uptake relative to no compound (=1), replicate samples” value on rat VMAT2 (Fig. 2b/2c source data, compound 0.0152 μM) was 0.9388 and 0.9839 and 0.9625 and 0.9806; on rat VMAT2 (Fig. 2b/2c source data, compound 0.1372 μM), 0.349 and 0.2794 and 0.2127 and 0.5464; at rat VMAT2 (Fig. 2b/2c source data, compound 0.4115 μM) it was 0.2586 and 0.1616 and 0.1258 and 0.3046; at rat VMAT2 (Fig. 2b/2c source data, compound 1.2346 μM), 0.2328 and 0.1144 and 0.1141 and 0.2682; at rat VMAT2 (Fig. 2b/2c source data, compound 3.7037 μM), 0.255 and 0.1011 and 0.07806 and 0.2392; on rat VMAT2 (Fig. 2b/2c source data, compound 11.1111 μM), 0.2251 and 0.08176 and 0.1003 and 0.2777. For the same compound, the “FFN206 uptake relative to no compound (=1), replicate samples” value on rat VMAT2 (Fig. 2c source data, compound 0.0017 μM) was 1.315 and 1.032 and 1.041 and 1.083.
